{"source": "patent US20100120907A1", "about": "“DERIVATIVES OF AMYRIS ALCOHOLS AND EUDESMOL FOR TREATING COLD SORES AND HERPES” (priority 2007, published 2010)", "origin": "cited, not measured here", "key": {"cold sores": {"tested_on": "cold sores", "details": "topical cream"}, "[1]": {"target": "omega-agatoxin IVA-sensitive (P/Q-type) Ca^2+ channel (Rattus norvegicus, UniProt P54282)", "sequence (P54282 whole entry)": "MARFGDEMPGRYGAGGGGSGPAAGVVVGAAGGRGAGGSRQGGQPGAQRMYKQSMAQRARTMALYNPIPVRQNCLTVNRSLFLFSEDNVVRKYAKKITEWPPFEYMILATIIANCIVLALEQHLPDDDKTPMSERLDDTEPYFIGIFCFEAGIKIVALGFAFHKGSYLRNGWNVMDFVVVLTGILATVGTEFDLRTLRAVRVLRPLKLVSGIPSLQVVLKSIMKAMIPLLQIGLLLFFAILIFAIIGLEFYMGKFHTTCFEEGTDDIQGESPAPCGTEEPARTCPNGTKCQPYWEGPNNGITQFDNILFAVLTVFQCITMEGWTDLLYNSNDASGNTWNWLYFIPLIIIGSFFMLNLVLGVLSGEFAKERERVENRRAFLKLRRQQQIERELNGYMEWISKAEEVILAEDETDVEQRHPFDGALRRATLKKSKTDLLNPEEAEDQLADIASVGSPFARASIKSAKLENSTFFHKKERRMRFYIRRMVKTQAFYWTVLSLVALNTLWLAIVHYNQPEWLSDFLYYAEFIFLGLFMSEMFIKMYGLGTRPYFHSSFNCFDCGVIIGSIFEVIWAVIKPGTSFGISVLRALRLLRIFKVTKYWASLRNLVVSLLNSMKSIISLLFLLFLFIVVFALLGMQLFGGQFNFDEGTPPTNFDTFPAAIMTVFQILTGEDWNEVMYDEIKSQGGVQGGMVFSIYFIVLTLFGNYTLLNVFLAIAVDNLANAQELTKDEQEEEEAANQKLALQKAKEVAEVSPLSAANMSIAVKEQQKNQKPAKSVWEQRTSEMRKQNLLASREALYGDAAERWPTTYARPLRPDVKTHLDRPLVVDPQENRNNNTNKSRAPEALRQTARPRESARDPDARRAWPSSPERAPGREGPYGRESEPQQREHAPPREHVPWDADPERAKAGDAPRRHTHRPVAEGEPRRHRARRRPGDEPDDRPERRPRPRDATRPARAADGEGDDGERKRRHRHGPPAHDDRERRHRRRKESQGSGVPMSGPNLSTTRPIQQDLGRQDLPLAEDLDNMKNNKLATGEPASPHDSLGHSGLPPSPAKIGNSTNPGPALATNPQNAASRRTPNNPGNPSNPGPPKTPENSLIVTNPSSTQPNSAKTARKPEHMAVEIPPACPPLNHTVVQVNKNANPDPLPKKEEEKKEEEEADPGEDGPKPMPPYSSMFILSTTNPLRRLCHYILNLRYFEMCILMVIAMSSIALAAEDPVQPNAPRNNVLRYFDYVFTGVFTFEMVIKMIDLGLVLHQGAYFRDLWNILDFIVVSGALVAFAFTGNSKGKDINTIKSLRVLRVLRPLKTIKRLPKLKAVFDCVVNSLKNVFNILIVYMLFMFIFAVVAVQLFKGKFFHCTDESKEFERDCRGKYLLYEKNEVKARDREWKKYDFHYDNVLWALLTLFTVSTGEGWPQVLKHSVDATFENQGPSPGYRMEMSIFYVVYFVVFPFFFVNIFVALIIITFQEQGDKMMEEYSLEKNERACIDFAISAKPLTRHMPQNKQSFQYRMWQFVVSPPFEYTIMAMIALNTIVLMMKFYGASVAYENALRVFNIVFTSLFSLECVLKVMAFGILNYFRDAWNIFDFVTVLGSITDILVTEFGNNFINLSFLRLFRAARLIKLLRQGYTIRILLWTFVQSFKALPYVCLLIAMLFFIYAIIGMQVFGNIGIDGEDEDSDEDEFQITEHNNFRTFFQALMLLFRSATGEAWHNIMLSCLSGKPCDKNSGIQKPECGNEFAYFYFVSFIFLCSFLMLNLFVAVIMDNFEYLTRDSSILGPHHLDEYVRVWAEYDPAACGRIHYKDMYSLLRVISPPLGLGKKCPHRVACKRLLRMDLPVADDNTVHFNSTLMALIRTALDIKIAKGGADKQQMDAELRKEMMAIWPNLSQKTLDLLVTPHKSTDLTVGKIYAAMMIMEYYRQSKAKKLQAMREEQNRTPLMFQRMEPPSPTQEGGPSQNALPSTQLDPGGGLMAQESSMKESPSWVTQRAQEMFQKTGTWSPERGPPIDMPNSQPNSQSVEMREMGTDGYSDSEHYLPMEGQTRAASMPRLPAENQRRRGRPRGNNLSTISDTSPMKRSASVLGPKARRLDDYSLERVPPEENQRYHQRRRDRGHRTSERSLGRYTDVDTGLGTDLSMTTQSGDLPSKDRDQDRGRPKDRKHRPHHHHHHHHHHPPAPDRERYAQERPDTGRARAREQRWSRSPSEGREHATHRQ"}, "neurogenic inflammation": {"tested_on": "neurogenic inflammation", "details": "following electrical stimulation of rat trigeminal ganglion"}, "[2]": {"tested_on": "porcine brain microvascular endothelial cells", "details": "50-100 microM"}, "[3]": {"tested_on": "human umbilical vein endothelial cells (HUVEC)"}, "[4]": {"tested_on": "extracellular signal-regulated kinase (ERK) ½", "details": "100 microM"}, "angiogenesis": {"tested_on": "angiogenesis", "details": "mice"}, "[5]": {"target": "nicotinic ACh receptor channel (Homo sapiens, UniProt P02708+P11230+Q04844+Q07001)", "sequence (P02708 21-457)": "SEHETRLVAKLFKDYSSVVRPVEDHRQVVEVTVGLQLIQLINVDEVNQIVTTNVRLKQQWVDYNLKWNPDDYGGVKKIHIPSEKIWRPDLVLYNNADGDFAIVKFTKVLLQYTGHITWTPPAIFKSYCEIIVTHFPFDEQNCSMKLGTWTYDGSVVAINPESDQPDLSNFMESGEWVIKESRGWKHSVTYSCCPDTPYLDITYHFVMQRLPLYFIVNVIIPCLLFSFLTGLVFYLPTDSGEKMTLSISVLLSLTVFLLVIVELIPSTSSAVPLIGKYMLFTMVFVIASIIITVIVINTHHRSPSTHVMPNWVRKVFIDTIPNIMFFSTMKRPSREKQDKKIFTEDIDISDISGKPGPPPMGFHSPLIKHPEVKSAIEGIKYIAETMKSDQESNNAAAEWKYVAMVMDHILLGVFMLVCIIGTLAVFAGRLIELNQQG", "sequence (P11230 24-501)": "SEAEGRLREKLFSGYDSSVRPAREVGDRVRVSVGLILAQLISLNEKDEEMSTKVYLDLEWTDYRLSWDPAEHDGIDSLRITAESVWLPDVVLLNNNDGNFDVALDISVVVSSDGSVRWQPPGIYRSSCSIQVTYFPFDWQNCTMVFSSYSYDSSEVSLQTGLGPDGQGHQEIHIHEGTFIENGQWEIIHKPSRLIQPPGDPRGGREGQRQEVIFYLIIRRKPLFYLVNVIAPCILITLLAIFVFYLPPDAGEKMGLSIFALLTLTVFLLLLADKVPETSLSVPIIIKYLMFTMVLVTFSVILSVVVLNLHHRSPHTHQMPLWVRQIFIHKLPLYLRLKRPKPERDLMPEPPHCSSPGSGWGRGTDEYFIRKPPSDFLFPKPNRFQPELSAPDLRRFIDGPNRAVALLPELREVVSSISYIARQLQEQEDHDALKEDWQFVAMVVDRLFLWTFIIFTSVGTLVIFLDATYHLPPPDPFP", "sequence (Q07001 22-517)": "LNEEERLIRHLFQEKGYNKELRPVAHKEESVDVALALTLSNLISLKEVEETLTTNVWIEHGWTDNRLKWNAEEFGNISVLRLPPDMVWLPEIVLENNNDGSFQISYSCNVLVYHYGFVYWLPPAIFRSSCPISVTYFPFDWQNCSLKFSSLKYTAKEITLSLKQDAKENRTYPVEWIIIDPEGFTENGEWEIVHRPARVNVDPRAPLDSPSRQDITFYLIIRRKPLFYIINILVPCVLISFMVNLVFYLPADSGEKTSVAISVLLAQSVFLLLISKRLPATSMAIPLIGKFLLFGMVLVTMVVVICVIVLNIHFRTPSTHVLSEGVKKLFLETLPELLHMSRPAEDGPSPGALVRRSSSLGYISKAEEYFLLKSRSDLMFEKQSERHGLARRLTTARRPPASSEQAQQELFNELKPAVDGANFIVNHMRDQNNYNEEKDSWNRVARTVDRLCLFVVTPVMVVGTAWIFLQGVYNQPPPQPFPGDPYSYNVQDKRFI", "sequence (Q04844 21-493)": "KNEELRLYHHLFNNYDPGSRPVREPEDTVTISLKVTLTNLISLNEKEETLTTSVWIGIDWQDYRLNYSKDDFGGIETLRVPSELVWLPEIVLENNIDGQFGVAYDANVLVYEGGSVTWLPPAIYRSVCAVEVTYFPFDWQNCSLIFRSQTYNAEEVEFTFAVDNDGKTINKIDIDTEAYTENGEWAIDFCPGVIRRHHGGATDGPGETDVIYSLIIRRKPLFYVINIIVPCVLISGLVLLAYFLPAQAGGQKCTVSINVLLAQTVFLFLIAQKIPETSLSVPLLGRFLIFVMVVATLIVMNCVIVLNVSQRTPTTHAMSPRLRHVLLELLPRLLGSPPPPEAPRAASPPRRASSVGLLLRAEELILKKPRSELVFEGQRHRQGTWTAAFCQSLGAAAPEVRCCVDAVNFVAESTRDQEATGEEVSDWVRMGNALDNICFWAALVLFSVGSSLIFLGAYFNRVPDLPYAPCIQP"}, "Na^+, K(+)-ATPase": {"tested_on": "Na^+, K(+)-ATPase", "details": "among the various kinds of phosphatases examined"}, "skin papillomas": {"tested_on": "skin papillomas", "details": "DMBA-initiated, TPA-promoted, mice"}, "[6]": {"tested_on": "ornithine decarboxylase (ODC)", "details": "mice"}}}
{"molecule": "Nc1nc2c(ncn2COCCO)c(=O)[nH]1", "note": "[Acyclovir]", "values": [{"measurement": "reduction of healing time / duration of cold sores", "setting": "cold sores", "value": "up to ½"}]}
{"molecule": "CC1=CCC[C@]2(C)CC[C@@H](C(C)(C)O)C[C@@H]12", "note": "[α-eudesmol]", "values": [{"measurement": "inhibition of P/Q-type Ca2+ channel", "setting": "[1]", "value": "potently inhibits"}, {"measurement": "inhibition of neurogenic inflammation", "setting": "neurogenic inflammation", "value": "potently inhibits"}]}
{"molecule": "C=C1CCC[C@]2(C)CC[C@@H](C(C)(C)O)C[C@@H]12", "note": "[β-eudesmol]", "values": [{"measurement": "neurite extension", "setting": "PC-12 cells; 100 and 150 μM", "value": "significantly induced neurite extension"}, {"measurement": "[3H]thymidine incorporation", "setting": "PC-12 cells; at the highest concentration (150 μM)", "value": "suppression"}, {"measurement": "proliferation", "setting": "[2]", "value": "inhibited"}, {"measurement": "HUVEC migration stimulated by bFGF", "setting": "[3]", "value": "inhibited"}, {"measurement": "tube formation by HUVEC in Matrigel", "setting": "[3]", "value": "inhibited"}, {"measurement": "proliferation", "setting": "[3]; 50-100 microM", "value": "inhibited"}, {"measurement": "phosphorylation of ERK ½ induced by bFGF or vascular endothelial growth factor", "setting": "[4]", "value": "blocked"}, {"measurement": "angiogenesis in subcutaneously implanted Matrigel plugs and in adjuvant-induced granuloma", "setting": "angiogenesis", "value": "significantly inhibited"}, {"measurement": "block of nicotinic ACh receptor channel", "setting": "[5]", "value": "blocked the nicotinic ACh receptor channel in both the open and closed conformations"}, {"measurement": "desensitization of the nicotinic ACh receptor", "setting": "[5]", "value": "accelerated the desensitization"}, {"measurement": "inhibition of Na+,K+-ATPase activity", "setting": "Na^+, K(+)-ATPase", "value": "most strongly"}]}
{"molecule": "santalol", "values": [{"measurement": "decrease of papilloma incidence", "setting": "skin papillomas", "value": 67, "unit": "%"}, {"measurement": "decrease of papilloma multiplicity", "setting": "skin papillomas", "value": 96, "unit": "%"}, {"measurement": "decrease of TPA-induced ODC activity", "setting": "[6]", "value": 70, "unit": "%"}]}
